Laboratory results from PMC11154582, “Modeling the Blood-Brain Barrier Permeability of Potential Heterocyclic Drugs via Biomimetic IAM Chromatography Technique Combined with QSAR Methodology” (Molecules, 2024).

Test: Biomimetic IAM chromatography (log kw, IAM)
Format: physicochemical
Conditions: IAM.PC.DD2 column, buffered acetonitrile, pH 7.4, 25 °C, extrapolated to buffer
Protocol: High performance liquid chromatography (HPLC) measurements were performed on a Shimadzu Vp liquid chromatographic system (Shimadzu, Izabelin, Poland). This instrument was equipped with LC 10AT pump, SPD 10A ultraviolet-visible detector, SCL 10A system controller, CTO-10 AS chromatographic oven, and a Rheodyne injector valve with a 20 μL loop. As the stationary phase Regis IAM.PC.DD2 column, 100 × 4.6 mm i.d., 10 μm (Morton Grove, IL, USA) was applied.
Buffered acetonitrile mixtures were used as effluents. Acetonitrile concentration, expressed as a volume fraction, was varied within a range from 0.2 to 0.5, with a constant step of 0.1. The buffer was prepared from 0.01 mol L^−1 solutions of Na2HPO4 and citric acid, and a pH value of 7.4 was fixed before mixing with an organic modifier. The flow rate was 1.3 mL min^−1. Each compound sample was dissolved in acetonitrile to obtain a concentration of 0.005 mg mL^−1, and each solute peak was detected under ultraviolet light at a wavelength of λmax = 254 nm. Each measurement was performed at a constant temperature (25 °C) at least three times. The dead time values were measured from sodium chloride peaks.
From among 126 heterocyclic compounds evaluated in this work (Table 1), 89 structures have been investigated previously on the IAM column: these are molecules from groups III, IV, V, VI, VII, VIII, IX, XI, XIII, and XV [21, 22, 23]. The remaining ones, i.e., 37 compounds from groups I, II, X, XII and XIV, were tested in this study for the first time using the biomimetic IAM chromatographic technique. To calculate the log kw values (i.e., the logarithms of retention parameter in the buffer as the mobile phase), the retention parameters, logs k (k = (tr − t0)/t0; where tr is the solute retention time, and t0 is a dead time), that were measured for all tested compounds, were used according to Soczewiński-Wachtmeister’s equation (Equation (5)): (5) log k=logtr−t0/t0=log kw−sφ where φ denotes the volume fraction of acetonitrile as organic modifier in the mobile phase, and kw means the retention parameter corresponding to buffer as the mobile phase. The log kw values were evaluated as linear regression coefficients (Table 2).

| log kw, IAM | Compound |
| --- | --- |
| 0.10 | c1ccc(N2CCn3cnnc32)cc1 [Compound 1] |
| 0.41 | Cc1ccc(N2CCn3cnnc32)cc1 [Compound 2] |
| 0.10 | COc1ccc(N2CCn3cnnc32)cc1 [Compound 3] |
| 0.64 | Clc1cccc(N2CCn3cnnc32)c1 [Compound 4] |
| 1.18 | Clc1ccc(N2CCn3cnnc32)cc1Cl [Compound 5] |
| 0.11 | c1ccc(OCc2nnc3n2CCN3c2ccccc2)cc1 [Compound 6] |
| 0.06 | COc1ccc(N2CCn3c(COc4ccc(Cl)cc4)nnc32)cc1 [Compound 7] |
| 1.86 | Clc1ccc(OCc2nnc3n2CCN3c2ccc(Cl)cc2)cc1 [Compound 10] |
| 2.14 | Cc1cc(Cl)ccc1OCc1nnc2n1CCN2c1ccc(Cl)cc1 [Compound 11] |
| 2.25 | Clc1ccc(N2CCn3c(COc4ccc(Cl)cc4Cl)nnc32)cc1 [Compound 12] |
| 2.55 | Clc1ccc(N2CCn3c(COc4cc(Cl)c(Cl)cc4Cl)nnc32)cc1 [Compound 14] |
| 0.40 | NNC(=O)Cc1nnc2n(c1=O)CCN2c1ccccc1 [Compound 56] |
| 0.13 | Cc1ccc(N2CCn3c2nnc(CC(=O)NN)c3=O)cc1 [Compound 57] |
| 0.06 | CCOc1ccc(N2CCn3c2nnc(CC(=O)NN)c3=O)cc1 [Compound 59] |
| 0.32 | NNC(=O)Cc1nnc2n(c1=O)CCN2c1ccc(Cl)cc1 [Compound 60] |
| 1.64 | O=c1c(-c2cccs2)nnc2n1CCN2c1ccccc1 [Compound 72] |
| 1.54 | Cc1ccccc1N1CCn2c1nnc(-c1cccs1)c2=O [Compound 73] |
| 1.94 | Cc1ccc(N2CCn3c2nnc(-c2cccs2)c3=O)cc1 [Compound 74] |
| 1.17 | Cc1cccc(N2CCn3c2nnc(-c2cccs2)c3=O)c1C [Compound 75] |
| 1.50 | COc1ccccc1N1CCn2c1nnc(-c1cccs1)c2=O [Compound 76] |
| 1.75 | O=c1c(-c2cccs2)nnc2n1CCN2c1ccccc1Cl [Compound 77] |

Test: not given
Conditions: IAM column; ref [21]; cited from earlier work

| Compound | log kw, IAM |
| --- | --- |
| Cc1ccc(N2CCn3c2nnc(C(=O)NN)c3=O)cc1 [Compound 52] | 0.16 |

Same assay, conditions: IAM column; ref [22]; cited from earlier work

| Compound | log kw, IAM |
| --- | --- |
| Cc1ccc(N2CCn3c2nnc(C(F)(F)F)c3=O)cc1 [Compound 17] | 1.25 |
| O=c1c(C(F)(F)F)nnc2n1CCN2c1cccc(Cl)c1 [Compound 20] | 1.66 |
| O=c1c(C(F)(F)F)nnc2n1CCN2c1ccc(Cl)cc1 [Compound 21] | 1.58 |
| O=c1c(C(F)(F)F)nnc2n1CCN2c1ccc(Cl)c(Cl)c1 [Compound 22] | 2.29 |
| CC(C)c1nnc2n(c1=O)CCN2c1ccccc1 [Compound 29] | 0.76 |
| Cc1ccc(N2CCn3c2nnc(C(C)C)c3=O)cc1 [Compound 30] | 1.05 |
| CC(C)c1nnc2n(c1=O)CCN2c1cccc(Cl)c1 [Compound 32] | 1.49 |
| CCOC(=O)c1nnc2n(c1=O)CCN2c1ccccc1 [Compound 35] | 0.48 |
| CCOC(=O)c1nnc2n(c1=O)CCN2c1ccc(C)cc1 [Compound 36] | 1.93 |
| CCOC(=O)c1nnc2n(c1=O)CCN2c1ccc(Cl)cc1 [Compound 38] | 1.12 |

Same assay, conditions: IAM column; ref [23]; cited from earlier work

| Compound | log kw, IAM |
| --- | --- |
| CCc1nnc2n(c1=O)CCN2c1ccccc1 [Compound 23] | 0.55 |
| CCc1nnc2n(c1=O)CCN2c1ccc(C)cc1 [Compound 24] | 1.00 |
| CCc1nnc2n(c1=O)CCN2c1ccccc1Cl [Compound 25] | 0.80 |
| CCc1nnc2n(c1=O)CCN2c1cccc(Cl)c1 [Compound 26] | 0.84 |
| CCc1nnc2n(c1=O)CCN2c1ccc(Cl)cc1 [Compound 27] | 1.24 |
| COC(=O)Cc1nnc2n(c1=O)CCN2c1ccccc1 [Compound 40] | 0.81 |
| CCOc1ccc(N2CCn3c2nnc(CC(=O)OC)c3=O)cc1 [Compound 43] | 1.42 |
| COC(=O)Cc1nnc2n(c1=O)CCN2c1ccc(Cl)cc1 [Compound 44] | 1.82 |
| CCOC(=O)Cc1nnc2n(c1=O)CCN2c1ccc(C)cc1 [Compound 46] | 1.70 |
| CCOC(=O)Cc1nnc2n(c1=O)CCN2c1ccccc1OC [Compound 47] | 0.91 |
| CCOC(=O)Cc1nnc2n(c1=O)CCN2c1ccc(Cl)cc1 [Compound 49] | 2.11 |
| O=c1c(-c2ccco2)nnc2n1CCN2c1ccccc1 [Compound 61] | 1.29 |
| Cc1ccccc1N1CCn2c1nnc(-c1ccco1)c2=O [Compound 62] | 0.96 |
| Cc1ccc(N2CCn3c2nnc(-c2ccco2)c3=O)cc1 [Compound 63] | 1.69 |
| Cc1cccc(N2CCn3c2nnc(-c2ccco2)c3=O)c1C [Compound 64] | 1.42 |
| COc1ccccc1N1CCn2c1nnc(-c1ccco1)c2=O [Compound 65] | 1.11 |
| COc1ccc(N2CCn3c2nnc(-c2ccco2)c3=O)cc1 [Compound 66] | 1.19 |
| O=c1c(-c2ccco2)nnc2n1CCN2c1ccccc1Cl [Compound 67] | 1.27 |
| O=c1c(-c2ccco2)nnc2n1CCN2c1cccc(Cl)c1 [Compound 68] | 2.08 |
| O=c1c(-c2ccco2)nnc2n1CCN2c1ccc(Cl)cc1 [Compound 69] | 2.02 |
| O=c1c(-c2ccco2)nnc2n1CCN2c1ccc(Cl)c(Cl)c1 [Compound 70] | 3.23 |
| O=c1c(-c2ccco2)nnc2n1CCN2c1c(Cl)cccc1Cl [Compound 71] | 1.70 |
| O=c1c(-c2ccccc2)nnc2n1CCN2c1ccccc1 [Compound 81] | 1.91 |
| Cc1ccccc1N1CCn2c1nnc(-c1ccccc1)c2=O [Compound 82] | 1.53 |
| Cc1ccc(N2CCn3c2nnc(-c2ccccc2)c3=O)cc1 [Compound 84] | 2.22 |

| Compound | log kw, IAM |
| --- | --- |
| COc1ccccc1N1CCn2c1nnc(-c1ccccc1)c2=O [Compound 85] | 1.47 |
| CCOc1ccc(N2CCn3c2nnc(-c2ccccc2)c3=O)cc1 [Compound 87] | 2.14 |
| Cc1cccc(N2CCn3c2nnc(-c2ccccc2)c3=O)c1C [Compound 88] | 1.85 |
| O=c1c(-c2ccccc2)nnc2n1CCN2c1cccc(Cl)c1 [Compound 90] | 2.64 |
| O=c1c(Cc2ccccc2)nnc2n1CCN2c1ccccc1 [Compound 102] | 3.26 |
| O=c1c(Cc2cccc(Cl)c2)nnc2n1CCN2c1ccccc1 [Compound 104] | 2.48 |
| O=c1c(Cc2ccc(Cl)cc2)nnc2n1CCN2c1ccccc1 [Compound 105] | 2.39 |
| Cc1ccc(N2CCn3c2nnc(Cc2ccccc2)c3=O)cc1 [Compound 106] | 2.15 |
| Cc1ccc(Cc2nnc3n(c2=O)CCN3c2ccc(C)cc2)cc1 [Compound 107] | 2.51 |
| Cc1ccc(N2CCn3c2nnc(Cc2cccc(C)c2)c3=O)cc1 [Compound 108] | 2.59 |
| Cc1ccc(N2CCn3c2nnc(Cc2cccc(Cl)c2)c3=O)cc1 [Compound 110] | 2.78 |
| Cc1ccc(N2CCn3c2nnc(Cc2ccc(Cl)cc2)c3=O)cc1 [Compound 111] | 2.81 |
| CCOc1ccc(N2CCn3c2nnc(Cc2ccc(C)cc2)c3=O)cc1 [Compound 113] | 2.43 |
| CCOc1ccc(N2CCn3c2nnc(Cc2cccc(Cl)c2)c3=O)cc1 [Compound 115] | 2.73 |
| Cc1ccccc1N1CCn2c1nnc(Cc1ccccc1Cl)c2=O [Compound 117] | 2.02 |
| O=c1c(Cc2ccccc2)nnc2n1CCN2c1ccc(Cl)cc1 [Compound 118] | 2.52 |
| O=c1c(Cc2ccccc2Cl)nnc2n1CCN2c1ccc(Cl)cc1 [Compound 119] | 3.22 |
| O=c1c(Cc2cccc(Cl)c2)nnc2n1CCN2c1ccc(Cl)cc1 [Compound 120] | 3.15 |
| O=c1c(Cc2ccc(Cl)cc2)nnc2n1CCN2c1ccc(Cl)cc1 [Compound 121] | 3.17 |
| O=c1c(CCc2ccccc2)nnc2n1CCN2c1ccccc1 [Compound 122] | 2.07 |
| Cc1ccc(N2CCn3c2nnc(CCc2ccccc2)c3=O)cc1 [Compound 123] | 2.41 |
| O=c1c(CCc2ccccc2)nnc2n1CCN2c1ccccc1Cl [Compound 124] | 1.81 |
| O=c1c(CCc2ccccc2)nnc2n1CCN2c1ccc(Cl)cc1 [Compound 125] | 2.68 |
| O=c1c(CCc2ccccc2)nnc2n1CCN2c1ccc(Cl)c(Cl)c1 [Compound 126] | 3.40 |
